Data as given in paper PMC12587545, “Noncytotoxic polymyxin derivatives enhance antibiotic action against multidrug-resistant Gram-negative bacteria” (Antimicrobial Agents and Chemotherapy, 2025).
“And” between values parts separate entries of the source, which are not always exact repeats. Identical values can stand only once.

Columns and labels:
P. aeruginosa = assay: Checkerboard assay (antibiotic potentiation); type: cell-based, Pseudomonas aeruginosa; conditions: for MICantibiotic: antibiotic alone
Protocol: (§1) The interaction between the compounds and the antibiotics was evaluated using the fractional inhibitory concentration (FIC) index. FIC indices of ≤0.5 is synergistic, 0.5 < × ≤ 4 is additive, whereas >4 is antagonistic ([34]).
(§2) Synergy was measured by the FIC index, which is the summation of the individual FICs of the antibiotic and the compound. The FIC is calculated by dividing the MIC of one agent in the presence of another by the MIC of the agent alone. […] The FBS studies were conducted by following a previously published protocol ([29], [50]). The FBS was inactivated by heating at 56°C for 30 min with constant swirling.

A. baumannii = assay: Checkerboard assay (antibiotic potentiation); type: cell-based, Acinetobacter baumannii; conditions: for MICantibiotic: antibiotic alone
Protocol: (§3) The interaction between the compounds and the antibiotics was evaluated using the fractional inhibitory concentration (FIC) index. FIC indices of ≤0.5 is synergistic, 0.5 < × ≤ 4 is additive, whereas >4 is antagonistic ([34]). […] .
(§4) The bacterial isolates were acquired from ATCC or the Canadian Ward Surveillance (CANWARD) study ([56]). CANWARD isolates were collected from infected patients admitted to participating medical centers across Canada.
(§5) The antibiotic and compounds were serially diluted 2-fold in CAMHB along the x- and y-axis, respectively, on a 96-well plate that was subsequently incubated with equal volumes of bacterial inoculum overnight at 37°C. Wells containing only media were used as negative controls, and wells containing only bacteria were used as positive controls. Synergy was measured by the FIC index, which is the summation of the individual FICs of the antibiotic and the compound. The FIC is calculated by dividing the MIC of one agent in the presence of another by the MIC of the agent alone. Turbidity was confirmed with a Molecular Devices (United States) EMax Plus microplate reader at a wavelength of 590 nm. The FBS studies were conducted by following a previously published protocol ([29], [50]). The FBS was inactivated by heating at 56°C for 30 min with constant swirling.

K. pneumoniae = assay: Checkerboard assay (antibiotic potentiation); type: cell-based, Klebsiella pneumoniae; conditions: for Interpretation: antibiotic + compound 1; for MICantibiotic: antibiotic alone; for Potentiation: of antibiotic by 8 µg/mL (5 µM) compound 1
Protocol: as §1, §2

E. cloacae = assay: Checkerboard assay (antibiotic potentiation); type: cell-based, Enterobacter cloacae; conditions: E. cloacae 121887 (colistin-resistant)
Protocol: as §3, §4, §5

[1] = system: MDR Gram-negative bacteria clinical isolates; assay: Checkerboard assay, summary over strains; type: cell-based; conditions: of all 14 clinical isolates; number (%)
Protocol: as §1, §5

E. coli = assay: Checkerboard assay (antibiotic potentiation); type: cell-based, Escherichia coli; conditions: for Interpretation: antibiotic + compound 1; for MICantibiotic + compound: antibiotic MIC with 8 µg/mL (5 µM) compound 1; for MICantibiotic: antibiotic alone; for Potentiation: of antibiotic by 8 µg/mL (5 µM) compound 1
Protocol: as §1, §2

[2] = K. pneumoniae 113250 (colistin-resistant)
[3] = E. coli 94393 (colistin-resistant)
[4] = E. coli 94474 (colistin-resistant)

How did the Interpretation (P. aeruginosa; P. aeruginosa 259-96916, antibiotic + compound 1) turn out when `CC(C)(O/N=C(\C(=O)N[C@@H]1C(=O)N2C(C(=O)[O-])=C(C[n+]3ccccc3)CS[C@H]12)c1csc(N)n1)C(=O)O` [Ceftazidime] was run?
Its Interpretation is “Synergy (FIC indices of ≤0.5 is synergistic)”.

What about the “MICantibiotic + compound” value (P. aeruginosa; P. aeruginosa 259-96916, antibiotic MIC with 8 µg/mL (5 µM) compound 1) of the same compound?
The value was 16 µg/mL.

And the MICantibiotic (P. aeruginosa; P. aeruginosa 259-96916)?
The MICantibiotic was 512 µg/mL.

What about the Potentiation (P. aeruginosa; P. aeruginosa 259-96916, of antibiotic by 8 µg/mL (5 µM) compound 1) of the same compound?
Its Potentiation is 32 fold.

What about the Interpretation (P. aeruginosa; P. aeruginosa 262-101856, antibiotic + compound 1) of the same compound?
The Interpretation was “Synergy (FIC indices of ≤0.5 is synergistic)”.

What about the “MICantibiotic + compound” value (P. aeruginosa; P. aeruginosa 262-101856, antibiotic MIC with 8 µg/mL (5 µM) compound 1) of the same compound?
The value was 4 µg/mL.

What about the MICantibiotic (P. aeruginosa; P. aeruginosa 262-101856) of the same compound?
The MICantibiotic was 16 µg/mL.

What about the Potentiation (P. aeruginosa; P. aeruginosa 262-101856, of antibiotic by 8 µg/mL (5 µM) compound 1) of the same compound?
Its Potentiation is 4 fold.

What about the Interpretation (P. aeruginosa; P. aeruginosa 264-105354, antibiotic + compound 1) of the same compound?
Its Interpretation is “Synergy (FIC indices of ≤0.5 is synergistic)”.

And the “MICantibiotic + compound” value (P. aeruginosa; P. aeruginosa 264-105354, antibiotic MIC with 8 µg/mL (5 µM) compound 1)?
The value was 16 µg/mL.

And the MICantibiotic (P. aeruginosa; P. aeruginosa 264-105354)?
Its MICantibiotic is 128 µg/mL.

And the Potentiation (P. aeruginosa; P. aeruginosa 264-105354, of antibiotic by 8 µg/mL (5 µM) compound 1)?
Its Potentiation is 8 fold.

And the Interpretation (P. aeruginosa; P. aeruginosa 101243 (colistin-resistant), antibiotic + compound 1)?
The Interpretation was “Additive (0.5 < × ≤ 4 is additive)”.

What about the “MICantibiotic + compound” value (P. aeruginosa; P. aeruginosa 101243 (colistin-resistant), antibiotic MIC with 8 µg/mL (5 µM) compound 1) of the same compound?
The value was 256 µg/mL.

What about the MICantibiotic (P. aeruginosa; P. aeruginosa 101243 (colistin-resistant)) of the same compound?
Its MICantibiotic is 512 µg/mL.

What about the Potentiation (P. aeruginosa; P. aeruginosa 101243 (colistin-resistant), of antibiotic by 8 µg/mL (5 µM) compound 1) of the same compound?
Its Potentiation is 2 fold.

What about the Interpretation (P. aeruginosa; P. aeruginosa 114228 (colistin-resistant), antibiotic + compound 1) of the same compound?
The Interpretation was “Additive (0.5 < × ≤ 4 is additive)”.

And the “MICantibiotic + compound” value (P. aeruginosa; P. aeruginosa 114228 (colistin-resistant), antibiotic MIC with 8 µg/mL (5 µM) compound 1)?
The value was 8 µg/mL.

What about the MICantibiotic (P. aeruginosa; P. aeruginosa 114228 (colistin-resistant)) of the same compound?
Its MICantibiotic is 8 µg/mL.

What about the Potentiation (P. aeruginosa; P. aeruginosa 114228 (colistin-resistant), of antibiotic by 8 µg/mL (5 µM) compound 1) of the same compound?
The Potentiation was 1 fold.

And the Interpretation (P. aeruginosa; P. aeruginosa PAO1, antibiotic + compound 1)?
Its Interpretation is “Synergy (FIC indices of ≤0.5 is synergistic)”.

And the Interpretation (P. aeruginosa; P. aeruginosa PAO1, antibiotic + compound 3)?
The Interpretation was “Additive (0.5 < × ≤ 4 is additive)”.

And the “MICantibiotic + compound” value (P. aeruginosa; P. aeruginosa PAO1, antibiotic MIC with 8 µg/mL (5 µM) compound 1)?
Its value is 0.5 µg/mL.

What about the “MICantibiotic + compound” value (P. aeruginosa; P. aeruginosa PAO1, antibiotic MIC with 8 µg/mL (5 µM) compound 3) of the same compound?
The value was 4 µg/mL.

What about the MICantibiotic (P. aeruginosa; P. aeruginosa PAO1) of the same compound?
Its MICantibiotic is 4 µg/mL and 2 µg/mL.

What about the Potentiation (P. aeruginosa; P. aeruginosa PAO1, of antibiotic by 8 µg/mL (5 µM) compound 1) of the same compound?
The Potentiation was 4 fold.

And the Potentiation (P. aeruginosa; P. aeruginosa PAO1, of antibiotic by 8 µg/mL (5 µM) compound 3)?
The Potentiation was 1 fold.

And the Interpretation (A. baumannii; A. baumannii 92247 (colistin-resistant), antibiotic + compound 1)?
Its Interpretation is “Additive (0.5 < × ≤ 4 is additive)”.

What about the “MICantibiotic + compound” value (A. baumannii; A. baumannii 92247 (colistin-resistant), antibiotic MIC with 4 µg/mL (2 µM) compound 1) of the same compound?
The value was 4 µg/mL.

And the MICantibiotic (A. baumannii; A. baumannii 92247 (colistin-resistant))?
Its MICantibiotic is 8 µg/mL.

What about the Potentiation (A. baumannii; A. baumannii 92247 (colistin-resistant), of antibiotic by 4 µg/mL (2 µM) compound 1) of the same compound?
Its Potentiation is 2 fold.

What about the Interpretation (A. baumannii; A. baumannii 110193, antibiotic + compound 1) of the same compound?
The Interpretation was “Synergy (FIC indices of ≤0.5 is synergistic)”.

What about the “MICantibiotic + compound” value (A. baumannii; A. baumannii 110193, antibiotic MIC with 4 µg/mL (2 µM) compound 1) of the same compound?
The value was 64 µg/mL.

What about the MICantibiotic (A. baumannii; A. baumannii 110193) of the same compound?
The MICantibiotic was 256 µg/mL.

What about the Potentiation (A. baumannii; A. baumannii 110193, of antibiotic by 4 µg/mL (2 µM) compound 1) of the same compound?
The Potentiation was 4 fold.

What about the Interpretation (A. baumannii; A. baumannii AB027, antibiotic + compound 1) of the same compound?
Its Interpretation is “Additive (0.5 < × ≤ 4 is additive)”.

What about the “MICantibiotic + compound” value (A. baumannii; A. baumannii AB027, antibiotic MIC with 4 µg/mL (2 µM) compound 1) of the same compound?
Its value is 1024 µg/mL.

What about the MICantibiotic (A. baumannii; A. baumannii AB027) of the same compound?
The MICantibiotic was 2048 µg/mL.

And the Potentiation (A. baumannii; A. baumannii AB027, of antibiotic by 4 µg/mL (2 µM) compound 1)?
The Potentiation was 2 fold.

And the “MICantibiotic + compound” value (A. baumannii; A. baumannii AB031, antibiotic MIC with 4 µg/mL (2 µM) compound 1)?
The value was greater than 64 µg/mL.

And the MICantibiotic (A. baumannii; A. baumannii AB031)?
The MICantibiotic was greater than 64 µg/mL.

What about the Interpretation (A. baumannii; A. baumannii ATCC 17978, antibiotic + compound 1) of the same compound?
The Interpretation was “Synergy (FIC indices of ≤0.5 is synergistic)”.

And the Interpretation (A. baumannii; A. baumannii ATCC 17978, antibiotic + compound 3)?
The Interpretation was “Additive (0.5 < × ≤ 4 is additive)”.

What about the “MICantibiotic + compound” value (A. baumannii; A. baumannii ATCC 17978, antibiotic MIC with 8 µg/mL (5 µM) compound 3) of the same compound?
Its value is 4 µg/mL.

What about the “MICantibiotic + compound” value (A. baumannii; A. baumannii ATCC 17978, antibiotic MIC with ¼ MIC (≤5 µM) of compound 1) of the same compound?
The value was 1 µg/mL.

What about the Potentiation (A. baumannii; A. baumannii ATCC 17978, of antibiotic by 8 µg/mL (5 µM) compound 3) of the same compound?
The Potentiation was 1 fold.

And the Potentiation (A. baumannii; A. baumannii ATCC 17978, of antibiotic by ¼ MIC (≤5 µM) of compound 1)?
The Potentiation was 16 fold.

What about the Interpretation (K. pneumoniae; [2]) of the same compound?
Its Interpretation is “Additive (0.5 < × ≤ 4 is additive)”.

And the “MICantibiotic + compound” value (K. pneumoniae; K. pneumoniae 113250 (colistin-resistant), antibiotic MIC with 8 µg/mL (5 µM) compound 1)?
Its value is 0.5 µg/mL.

And the MICantibiotic (K. pneumoniae; [2])?
The MICantibiotic was 0.5 µg/mL.

What about the Potentiation (K. pneumoniae; [2]) of the same compound?
The Potentiation was 1 fold.

What about the Interpretation (K. pneumoniae; K. pneumoniae 116381) of the same compound?
Its Interpretation is “Synergy (FIC indices of ≤0.5 is synergistic)”.

And the MICantibiotic (K. pneumoniae; K. pneumoniae 116381)?
Its MICantibiotic is 8 µg/mL.

What about the Potentiation (K. pneumoniae; K. pneumoniae 116381) of the same compound?
The Potentiation was 64 fold.

And the Interpretation (E. cloacae; antibiotic + compound 1)?
The Interpretation was “Additive (0.5 < × ≤ 4 is additive)”.

And the “MICantibiotic + compound” value (E. cloacae; antibiotic MIC with 8 µg/mL (5 µM) compound 1)?
Its value is 0.25 µg/mL.

What about the MICantibiotic (E. cloacae; antibiotic alone) of the same compound?
The MICantibiotic was 0.25 µg/mL.

And the Potentiation (E. cloacae; of antibiotic by 8 µg/mL (5 µM) compound 1)?
The Potentiation was 1 fold.

And the “clinical isolates in which the antibiotic was synergized by compound 1” value [1]?
The value was 5 (36%) strains.

And the Interpretation (E. coli; [3])?
The Interpretation was “Additive (0.5 < × ≤ 4 is additive)”.

What about the “MICantibiotic + compound” value (E. coli; [3]) of the same compound?
Its value is 0.5 µg/mL.

And the MICantibiotic (E. coli; [3])?
The MICantibiotic was 0.5 µg/mL.

And the Potentiation (E. coli; [3])?
Its Potentiation is 1 fold.

What about the Interpretation (E. coli; [4]) of the same compound?
The Interpretation was “Additive (0.5 < × ≤ 4 is additive)”.

What about the “MICantibiotic + compound” value (E. coli; [4]) of the same compound?
Its value is 0.25 µg/mL.

What about the MICantibiotic (E. coli; [4]) of the same compound?
Its MICantibiotic is 0.5 µg/mL.

And the Potentiation (E. coli; [4])?
The Potentiation was 2 fold.
